# Tests used:
# BT-549 = assay: NCI-60 single dose screen, sulforhodamine B; assay type: cell-based, human; conditions: Breast cancer BT-549; single dose 10^−5 M
# Protocol: (§1) In this research, all of the newly synthesised quinazolinones were subjected to in vitro anticancer screening by the National Cancer Institute (USA) against 60 different human cell lines including leukaemia, non-small cell lung cancer, colon cancer, CNS cancer, melanoma, ovarian cancer, renal cancer, prostate cancer, and breast cancer. The tested compounds were evaluated at a single dose (10^−5 M). […] Regarding the benzenesulfonamide counterparts, the introduction of an electron-withdrawing group on the benzenesulfonamide moiety increased the inhibitory activity on the glioblastoma cell line SNB-75 as depicted by the chloro derivative 5c (GI% = 63.09) which was higher than that of the unsubstituted derivative 5a (GI% = 40.06) and the methyl derivative 5b (GI% = 33.03).
# (§2) 1. Cytotoxicity screening against a panel of 60 human tumor cell lines
# (§3) All the compounds were selected for NCI-60 Human Tumor Cell Lines Screen by the Developmental Therapeutics Program (DTP) at the National Cancer Institute (NCI), Maryland, USA. The operation of this screen utilizes 60 different human tumor cell lines, representing leukemia, non-small-cell lung cancer, colon cancer, CNS cancer, melanoma, ovarian cancer, renal cancer, prostate cancer and breas t cancer.
# (§4) The compounds were supplied as dry powder and a single concentration is tested in all 60 cell lines at a single dose of 10 µM solution in dimethyl sulfoxide (DMSO) using Sulforhodamine B assay. Briefly, cells are seeded in 96 well plates at an appropriate density and incubated for 1 day. After 1 day, some of the plates are processed to determine the density time zero. To the remaining plates, compounds are added at 10 µM concentration. Plates are incubated a further 2 days, then fixed and staine d with sulphorhodamine B. Growth inhibition is calculated relative to cells without drug treatment and the time zero control. The use of a time zero control allows the determination of cell kill as well as net growth inhibition. […]
# M14 = assay: NCI-60 single dose screen, sulforhodamine B; assay type: cell-based, human; conditions: Melanoma M14; single dose 10^−5 M
# Protocol: as §1, §2, §3, §4
# MDA-MB-435 = assay: NCI-60 single dose screen, sulforhodamine B; assay type: cell-based, human; conditions: Melanoma MDA-MB-435; single dose 10^−5 M
# Protocol: as §1, §2, §3, §4
# UO-31 = assay: NCI-60 single dose screen, sulforhodamine B; assay type: cell-based, human; conditions: Renal cancer UO-31; single dose 10^−5 M
# Protocol: as §1, §2, §3, §4
# UACC-62 = assay: NCI-60 single dose screen, sulforhodamine B; assay type: cell-based, human; conditions: Melanoma UACC-62; single dose 10^−5 M
# Protocol: as §1, §2, §3, §4
# EKVX = assay: NCI-60 single dose screen, sulforhodamine B; assay type: cell-based, human; conditions: Non-small cell lung cancer EKVX; single dose 10^−5 M
# Protocol: as §1, §2, §3, §4
# MOLT-4 = assay: NCI-60 single dose screen, sulforhodamine B; assay type: cell-based, human; conditions: Leukaemia MOLT-4; single dose 10^−5 M
# Protocol: as §1, §2, §3, §4
# ACHN = assay: NCI-60 single dose screen, sulforhodamine B; assay type: cell-based, human; conditions: Renal cancer ACHN; single dose 10^−5 M
# Protocol: as §1, §2, §3, §4
# OVCAR-3 = assay: NCI-60 single dose screen, sulforhodamine B; assay type: cell-based, human; conditions: Ovarian cancer OVCAR-3; single dose 10^−5 M
# Protocol: as §1, §2, §3, §4
# COLO 205 = assay: NCI-60 single dose screen, sulforhodamine B; assay type: cell-based, human; conditions: Colon cancer COLO 205; single dose 10^−5 M
# Protocol: as §1, §2, §3, §4
# PC-3 = assay: NCI-60 single dose screen, sulforhodamine B; assay type: cell-based, human; conditions: Prostate cancer PC-3; single dose 10^−5 M
# Protocol: as §1, §2, §3, §4
# SNB-75 = assay: NCI-60 single dose screen, sulforhodamine B; assay type: cell-based, human; conditions: CNS cancer SNB-75; single dose 10^−5 M
# Protocol: as §1, §2, §3, §4
# A498 = assay: NCI-60 single dose screen, sulforhodamine B; assay type: cell-based, human; conditions: Renal cancer A498; single dose 10^−5 M
# Protocol: as §1, §2, §3, §4
# OVCAR-4 = assay: NCI-60 single dose screen, sulforhodamine B; assay type: cell-based, human; conditions: Ovarian cancer OVCAR-4; single dose 10^−5 M
# Protocol: as §1, §2, §3, §4
# SNB-19 = assay: NCI-60 single dose screen, sulforhodamine B; assay type: cell-based, human; conditions: CNS cancer SNB-19; single dose 10^−5 M
# Protocol: as §1, §2, §3, §4
# SF-295 = assay: NCI-60 single dose screen, sulforhodamine B; assay type: cell-based, human; conditions: CNS cancer SF-295; single dose 10^−5 M
# Protocol: as §1, §2, §3, §4
# SR = assay: NCI-60 single dose screen, sulforhodamine B; assay type: cell-based, human; conditions: Leukaemia SR; single dose 10^−5 M
# Protocol: as §1, §2, §3, §4
# SF-268 = assay: NCI-60 single dose screen, sulforhodamine B; assay type: cell-based, human; conditions: CNS cancer SF-268; single dose 10^−5 M
# Protocol: as §1, §2, §3, §4
# SW-620 = assay: NCI-60 single dose screen, sulforhodamine B; assay type: cell-based, human; conditions: Colon cancer SW-620; single dose 10^−5 M
# Protocol: as §1, §2, §3, §4
# SF-539 = assay: NCI-60 single dose screen, sulforhodamine B; assay type: cell-based, human; conditions: CNS cancer SF-539; single dose 10^−5 M
# Protocol: as §1, §2, §3, §4
# K-562 = assay: NCI-60 single dose screen, sulforhodamine B; assay type: cell-based, human; conditions: Leukaemia K-562; single dose 10^−5 M
# Protocol: as §1, §2, §3, §4
# TK-10 = assay: NCI-60 single dose screen, sulforhodamine B; assay type: cell-based, human; conditions: Renal cancer TK-10; single dose 10^−5 M
# Protocol: as §1, §2, §3, §4
# U251 = assay: NCI-60 single dose screen, sulforhodamine B; assay type: cell-based, human; conditions: CNS cancer U251; single dose 10^−5 M
# Protocol: as §1, §2, §3, §4
# RPMI-8226 = assay: NCI-60 single dose screen, sulforhodamine B; assay type: cell-based, human; conditions: Leukaemia RPMI-8226; single dose 10^−5 M
# Protocol: as §1, §2, §3, §4
# A549/ATCC = assay: NCI-60 single dose screen, sulforhodamine B; assay type: cell-based, human; conditions: Non-small cell lung cancer A549/ATCC; single dose 10^−5 M
# Protocol: as §1, §2, §3, §4
# HOP-92 = assay: NCI-60 single dose screen, sulforhodamine B; assay type: cell-based, human; conditions: Non-small cell lung cancer HOP-92; single dose 10^−5 M
# Protocol: as §1, §2, §3, §4
# NCI-H226 = assay: NCI-60 single dose screen, sulforhodamine B; assay type: cell-based, human; conditions: Non-small cell lung cancer NCI-H226; single dose 10^−5 M
# Protocol: as §1, §2, §3, §4
# NCI-H522 = assay: NCI-60 single dose screen, sulforhodamine B; assay type: cell-based, human; conditions: Non-small cell lung cancer NCI-H522; single dose 10^−5 M
# Protocol: as §1, §2, §3, §4
# OVCAR-5 = assay: NCI-60 single dose screen, sulforhodamine B; assay type: cell-based, human; conditions: Ovarian cancer OVCAR-5; single dose 10^−5 M
# Protocol: as §1, §2, §3, §4
# HCT-15 = assay: NCI-60 single dose screen, sulforhodamine B; assay type: cell-based, human; conditions: Colon cancer HCT-15; single dose 10^−5 M
# Protocol: as §1, §2, §3, §4
# NCI-H322M = assay: NCI-60 single dose screen, sulforhodamine B; assay type: cell-based, human; conditions: Non-small cell lung cancer NCI-H322M; single dose 10^−5 M
# Protocol: as §1, §2, §3, §4
SMILES,GI% at 10^−5 M (BT-549),GI% at 10^−5 M (M14),GI% at 10^−5 M (MDA-MB-435),GI% at 10^−5 M (UO-31) [%],GI% at 10^−5 M (UACC-62),GI% at 10^−5 M (EKVX) [%],GI% at 10^−5 M (MOLT-4),GI% at 10^−5 M (ACHN),GI% at 10^−5 M (OVCAR-3),GI% at 10^−5 M (COLO 205),GI% at 10^−5 M (PC-3) [%],GI% at 10^−5 M (SNB-75) [%],GI% at 10^−5 M (A498),GI% at 10^−5 M (OVCAR-4),GI% at 10^−5 M (SNB-19),GI% at 10^−5 M (SF-295),GI% at 10^−5 M (SR),GI% at 10^−5 M (SF-268),GI% at 10^−5 M (SW-620),GI% at 10^−5 M (SF-539),further results
"O=C(CNn1c(COc2ccccc2)nc2ccccc2c1=O)Nc1ccccc1 [Compound 4a, 2-((4-oxo-2-(phenoxymethyl)quinazolin-3(4H)-yl)amino)-N-phenylacetamide]",– (– means GI < 10%),– (– means GI < 10%),– (– means GI < 10%),21.57,– (– means GI < 10%),14.38,– (– means GI < 10%),– (– means GI < 10%),– (– means GI < 10%),– (– means GI < 10%),10.95,62.34,– (– means GI < 10%),– (– means GI < 10%),– (– means GI < 10%),– (– means GI < 10%),– (– means GI < 10%),– (– means GI < 10%),– (– means GI < 10%),– (– means GI < 10%),GI% at 10^−5 M (K-562): – (– means GI < 10%); GI% at 10^−5 M (TK-10): – (– means GI < 10%); GI% at 10^−5 M (U251): – (– means GI < 10%); GI% at 10^−5 M (RPMI-8226): – (– means GI < 10%); GI% at 10^−5 M (A549/ATCC): – (– means GI < 10%); GI% at 10^−5 M (HOP-92): 15.94%; GI% at 10^−5 M (NCI-H226): – (– means GI < 10%); GI% at 10^−5 M (NCI-H522): 13.74%; GI% at 10^−5 M (OVCAR-5): – (– means GI < 10%); GI% at 10^−5 M (HCT-15): – (– means GI < 10%); GI% at 10^−5 M (NCI-H322M): – (– means GI < 10%); melting point: 135 to 137 °C
"COc1ccc(NC(=O)CNn2c(COc3ccccc3)nc3ccccc3c2=O)cc1 [Compound 4b, N-(4-methoxyphenyl)-2-((4-oxo-2-(phenoxymethyl)quinazolin-3(4H)-yl)amino)acetamide]",– (– means GI < 10%),– (– means GI < 10%),– (– means GI < 10%),15.77,– (– means GI < 10%),10.17,– (– means GI < 10%),– (– means GI < 10%),– (– means GI < 10%),– (– means GI < 10%),9.76,21.9,34.65%,– (– means GI < 10%),– (– means GI < 10%),– (– means GI < 10%),– (– means GI < 10%),– (– means GI < 10%),– (– means GI < 10%),– (– means GI < 10%),GI% at 10^−5 M (K-562): – (– means GI < 10%); GI% at 10^−5 M (TK-10): – (– means GI < 10%); GI% at 10^−5 M (U251): – (– means GI < 10%); GI% at 10^−5 M (RPMI-8226): – (– means GI < 10%); GI% at 10^−5 M (A549/ATCC): – (– means GI < 10%); GI% at 10^−5 M (HOP-92): 16.34%; GI% at 10^−5 M (NCI-H226): – (– means GI < 10%); GI% at 10^−5 M (NCI-H522): 12.54%; GI% at 10^−5 M (OVCAR-5): – (– means GI < 10%); GI% at 10^−5 M (HCT-15): – (– means GI < 10%); GI% at 10^−5 M (NCI-H322M): – (– means GI < 10%); melting point: 146 to 148 °C
